What was measured:
late watergrass = assay: Test Example 1: herbicidal activity, application before weed generation under submerged conditions (Table 16, symbol A); format: in vivo, late watergrass (Echinochloa oryzicola); conditions: 320 g/ha applied herbicide
Method in brief: (§1)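 Alluvial soil was flooded to 4 cm depth, weed seeds were sown mixed and 2.5-leaf rice seedlings were transplanted. On sowing day, the compound's emulsion, diluted in water to a set dose, was applied to the water surface. Plants grew at 25–30 °C and were scored 0–5 after three weeks.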

Japanese bulrush = assay: Test Example 1: herbicidal activity, application before weed generation under submerged conditions (Table 16, symbol B); format: in vivo, Japanese bulrush (Schoenoplectus juncoides); conditions: 320 g/ha applied herbicide
Method in brief: as §1

oval-leafed pondweed [1] = assay: Test Example 1: herbicidal activity, application before weed generation under submerged conditions (Table 16, symbol C); format: in vivo, oval-leafed pondweed (Monochoria vaginalis); conditions: 320 g/ha applied herbicide
Method in brief: as §1

oval-leafed pondweed [2] = assay: Test Example 2: herbicidal activity, application during weed generation under submerged conditions (Table 17, symbol C); format: in vivo, oval-leafed pondweed (Monochoria vaginalis); conditions: AAH 320 g/ha; application during weed generation, submerged conditions
Method in brief: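 3-wk visual-criteria score after one water-surface dose. Emulsion formulation, water-diluted to set rate; applied at 1–2 leaf stage; alluvial soil, 4 cm standing water; seeds co-sown; greenhouse 25–30° C.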

Chinese sprangletop = assay: Test Example 3: herbicidal effect by foliage application, Wagner pot (Table 18, symbol D); format: in vivo, chinese sprangletop (Leptochloa chinensis); conditions: for herbicidal effect on D (Chinese sprangletop), rating 0-5: 320 g/ha
Method in brief: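 Plants were sown in alluvial soil held under 0.1–0.5 cm standing water and grown 14 days in a greenhouse at 25–30 °C. An emulsifiable formulation, water-diluted to the set dose, was then sprayed onto the foliage, and effects were scored three weeks later using previously defined criteria.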

blackgrass = assay: Test Example 4: herbicidal effect by soil treatment (Table 19, symbol J); format: in vivo, blackgrass (Alopecurus myosuroides); conditions: AAH 320 g/ha
Method in brief: (§2)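 In this soil treatment, the formulated compound reached the seeds only through the soil: seeds were buried about 1.5 cm deep in sterilized diluvial soil, then the diluted emulsion was sprayed over the surface. After three weeks at 25° C. to 30° C. in a greenhouse, effects were graded on criteria from an earlier test.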

windgrass = assay: Test Example 4: herbicidal effect by soil treatment (Table 19, symbol L); format: in vivo, windgrass (Apera spica-venti); conditions: for L: windgrass, herbicidal effect rating: AAH 320 g/ha
Method in brief: as §2

green foxtail = assay: Test Example 5: herbicidal effect by foliage application, plastic box (Table 20, symbol G); format: in vivo, green foxtail (Setaria viridis); conditions: foliage application; for effect on green foxtail (G): 320 g/ha, 3 weeks after application
Method in brief: (§3)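 Plants were sown into sterilized diluvial soil under about 1.5 cm cover and kept in a greenhouse at 25° C. to 30° C. Fourteen days on, foliage received an even spray of the diluted emulsion. Herbicidal or crop effect was judged three weeks afterwards.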

velvetleaf = assay: Test Example 5: herbicidal effect by foliage application, plastic box (Table 20, symbol M); format: in vivo, velvetleaf (Abutilon theophrasti); conditions: foliage application; for effect on velvetleaf (M): 320 g/ha, 3 weeks after application
Method in brief: as §3

persian speedwell = assay: Test Example 4: herbicidal effect by soil treatment (Table 19, symbol R); format: in vivo, Persian speedwell (Veronica persica); conditions: for R: persian speedwell, herbicidal effect rating: AAH 320 g/ha
Method in brief: as §2

chickweed = assay: Test Example 5: herbicidal effect by foliage application, plastic box (Table 20, symbol P); format: in vivo, common chickweed (Stellaria media); conditions: foliage application, AAH 320 g/ha, evaluated three weeks after application
Method in brief: as §3

[3] = amount of applied herbicide 320 g/ha
[4] = AAH 320 g/ha, evaluated three weeks after application

Row | SMILES | Herbicidal effect on A: late watergrass (grade 0-5) (late watergrass) | Herbicidal effect on B: Japanese bulrush (grade 0-5) (Japanese bulrush) | Herbicidal effect on C: oval-leafed pondweed (grade 0-5) (oval-leafed pondweed [1]) | herbicidal effect rating, C: oval-leafed pondweed (oval-leafed pondweed [2]) | herbicidal effect on D (Chinese sprangletop), rating 0-5 (Chinese sprangletop) | J: blackgrass, herbicidal effect rating (blackgrass) | L: windgrass, herbicidal effect rating (windgrass) | effect on green foxtail (G) (green foxtail) | effect on velvetleaf (M) (velvetleaf) | R: persian speedwell, herbicidal effect rating (persian speedwell) | herbicidal effect on D: Chinese sprangletop (Chinese sprangletop; [3]) | herbicidal effect on L: windgrass (windgrass; [3]) | herbicidal effect on R: persian speedwell (persian speedwell; [3]) | G: green foxtail, herbicidal effect (criteria 0-5) (green foxtail; [4]) | M: velvetleaf, herbicidal effect (criteria 0-5) (velvetleaf; [4]) | P: chickweed, herbicidal effect (criteria 0-5) (chickweed)
1 | C=CCC(C)Oc1ccc(-c2sc3ccccc3c2-c2c(O)c(C)nn(C)c2=O)cc1 (racemic) [1-213] | 5 (Herbicidal rate of 90% or more (almost completely withered)) | 5 (Herbicidal rate of 90% or more (almost completely withered)) | 5 (Herbicidal rate of 90% or more (almost completely withered)) | 4 (Herbicidal rate of 70% or more and less than 90%) | 4 (Herbicidal rate of 70% or more and less than 90%) | 1 (Herbicidal rate of 5% or more and less than 20%) | 2 (Herbicidal rate of 20% or more and less than 40%) | 5 (Herbicidal rate of 90% or more (almost completely withered)) | 5 (Herbicidal rate of 90% or more (almost completely withered)) | – | – | – | – | – | – | –
2 | COCC(C)Oc1ccc(-c2sc3ccccc3c2-c2c(O)c(C)nn(C)c2=O)cc1 (racemic) [1-228] | 5 (Herbicidal rate of 90% or more (almost completely withered)) | 5 (Herbicidal rate of 90% or more (almost completely withered)) | 4 (Herbicidal rate of 70% or more and less than 90%) | 3 (Herbicidal rate of 40% or more and less than 70%) | 5 (Herbicidal rate of 90% or more (almost completely withered)) | 4 (Herbicidal rate of 70% or more and less than 90%) | – | 5 (Herbicidal rate of 90% or more (almost completely withered)) | 5 (Herbicidal rate of 90% or more (almost completely withered)) | 5 (Herbicidal rate of 90% or more (almost completely withered)) | – | – | – | – | – | –
3 | CCC(COc1ccc(-c2sc3ccccc3c2-c2c(O)c(C)nn(C)c2=O)cc1)OC (racemic) [1-230] | 5 (Herbicidal rate of 90% or more (almost completely withered)) | 5 (Herbicidal rate of 90% or more (almost completely withered)) | 4 (Herbicidal rate of 70% or more and less than 90%) | 4 (Herbicidal rate of 70% or more and less than 90%) | 5 (Herbicidal rate of 90% or more (almost completely withered)) | 4 (Herbicidal rate of 70% or more and less than 90%) | 0 (Herbicidal rate of 5% or less (almost no effect)) | 5 (Herbicidal rate of 90% or more (almost completely withered)) | 5 (Herbicidal rate of 90% or more (almost completely withered)) | 5 (Herbicidal rate of 90% or more (almost completely withered)) | – | – | – | – | – | –
4 | Cc1nn(C)c(=O)c(-c2c(-c3ccc(OCCC(F)(F)F)cc3)sc3ccccc23)c1O [1-206] | 5 (Herbicidal rate of 90% or more (almost completely withered)) | 5 (Herbicidal rate of 90% or more (almost completely withered)) | 5 (Herbicidal rate of 90% or more (almost completely withered)) | 5 (Herbicidal rate of 90% or more (almost completely withered)) | 5 (Herbicidal rate of 90% or more (almost completely withered)) | 4 (Herbicidal rate of 70% or more and less than 90%) | 3 (Herbicidal rate of 40% or more and less than 70%) | 5 (Herbicidal rate of 90% or more (almost completely withered)) | 5 (Herbicidal rate of 90% or more (almost completely withered)) | 5 (Herbicidal rate of 90% or more (almost completely withered)) | – | – | – | – | – | –
5 | C=C(Br)COc1ccc(-c2sc3ccccc3c2-c2c(O)c(C)nn(C)c2=O)cc1 [1-215] | 5 (Herbicidal rate of 90% or more (almost completely withered)) | 4 (Herbicidal rate of 70% or more and less than 90%) | 4 (Herbicidal rate of 70% or more and less than 90%) | 3 (Herbicidal rate of 40% or more and less than 70%) | 5 (Herbicidal rate of 90% or more (almost completely withered)) | 0 (Herbicidal rate of 5% or less (almost no effect)) | 0 (Herbicidal rate of 5% or less (almost no effect)) | 5 (Herbicidal rate of 90% or more (almost completely withered)) | 5 (Herbicidal rate of 90% or more (almost completely withered)) | 3 (Herbicidal rate of 40% or more and less than 70%) | – | – | – | – | – | –
6 | CSCCSCc1ccc(-c2sc3ccccc3c2-c2c(O)c(C)nn(C)c2=O)cc1 [1-253] | 3 (Herbicidal rate of 40% or more and less than 70%) | 3 (Herbicidal rate of 40% or more and less than 70%) | 0 (Herbicidal rate of 5% or less (almost no effect)) | 0 (Herbicidal rate of 5% or less (almost no effect)) | 3 (Herbicidal rate of 40% or more and less than 70%) | 0 (Herbicidal rate of 5% or less (almost no effect)) | 0 (Herbicidal rate of 5% or less (almost no effect)) | 3 (Herbicidal rate of 40% or more and less than 70%) | 5 (Herbicidal rate of 90% or more (almost completely withered)) | 5 (Herbicidal rate of 90% or more (almost completely withered)) | – | – | – | – | – | –
7 | Cc1nn(C)c(=O)c(-c2c(-c3ccc(OC(F)F)cc3)sc3ccc(F)cc23)c1OC(=O)c1ccco1 [2-287] | 5 (Herbicidal rate of 90% or more (almost completely withered)) | 4 (Herbicidal rate of 70% or more and less than 90%) | 4 (Herbicidal rate of 70% or more and less than 90%) | 4 (Herbicidal rate of 70% or more and less than 90%) | – | – | – | – | – | – | 3 (Herbicidal rate of 40% or more and less than 70%) | 3 (Herbicidal rate of 40% or more and less than 70%) | 5 (Herbicidal rate of 90% or more (almost completely withered)) | 5 (Herbicidal rate of 90% or more (almost completely withered)) | 5 (Herbicidal rate of 90% or more (almost completely withered)) | 5 (Herbicidal rate of 90% or more (almost completely withered))

— US20230085307A1, “PYRIDAZINONE COMPOUND AND HERBICIDE” (NISSAN CHEMICAL CORPORATION, priority 2019, published 2023)
